Assay results taken from ChEMBL document CHEMBL3507680, “University of Dundee, Gates Library screen for HepG2 cell viability”.

Test: Human HepG2 cell viability assay in 384 well format
Assay type: toxicity, cell-based
Design: dose 125 nL, time 70.5 hour; cytotoxicity at 70.5 h: concentration not given beside the values
Conditions: HepG2 cells, read-out: Inhibition

| Compound | cytotoxicity at 70.5 h |
| --- | --- |
| COc1cccc(N2CC3(CCN(c4cnccn4)C3)CC2=O)c1 (stereo unspecified) | 13.8% |
| Cn1c2c(c(=O)n1C)CN(C(=O)c1ccco1)CCC2 | 12.8% |
| COCCN1CCCC12CCCN(c1ncccn1)C2 (stereo unspecified) | -2.34% |
| Cn1c2c(c(=O)n1C)CN(C(=O)c1ccsc1)CCC2 | -0.418% |
| O=C(c1cscn1)N1CCC2(CC1)CCN(S(=O)(=O)c1ccccc1)C2 | -8.17% |
| CC(=O)N1CC(c2ncn(C(C)C)n2)c2cc(C(=O)NC(C)C)ccc21 (stereo unspecified) | -4.9% |
| O=C(c1cscn1)N1CCC2(CCN(S(=O)(=O)c3ccccc3)C2)C1 (stereo unspecified) | -17.7% |
| COCCN1CCCC12CCCN(c1nncs1)C2 (stereo unspecified) | -8.64% |
| FC1(F)CCN(c2ccccc2)CC12CCN(c1ncccn1)C2 (stereo unspecified) | -1.34% |
| CCc1ncnc2c1CCN(c1ncc(F)cn1)CC2 | -7.64% |
| O=C(Cc1ccsc1)N1CCc2ccc(=O)n(CC3CC3)c2CC1 | -3.62% |
| Cn1nc(CN2CCOCC2)c2c1CN(C(=O)c1ccc[nH]1)C2 | 0.563% |
| CCS(=O)(=O)N1CCn2c(COCC3CCOCC3)cnc2C1C (stereo unspecified) | -5.13% |
| CCOCc1cncc2c1CCN(S(=O)(=O)c1ccccc1)C2 | -3.1% |
| CCCS(=O)(=O)N1C[C@@H]2COC[C@@H](Cc3nc(C)no3)[C@@H]2C1 | -1.7% |
| O=C(c1ccc[nH]1)N1CC2(CCN(c3ncccn3)C2)C1 | 1.3% |
| CC(C)CC(=O)N1CCN(C(=O)NC(C)C)CC2(CC(=O)N(C)C2)C1 (stereo unspecified) | -18.5% |
| O=C(C1CCOCC1)N1CCO[C@@H]2[C@@H](OCc3ccncc3)CC[C@@H]21 | -22.7% |
| CCS(=O)(=O)N1CCC2(CC1)CN(c1cncnc1)C(=O)CO2 | -15.9% |
| Cc1cccc(C(=O)N2CC[C@H]3C[C@@H](C)O[C@@H]3C2)n1 | -19.7% |
| O=C(C1CCOCC1)N1CCO[C@H]2[C@H](OCC3CC3)CC[C@@H]21 | 2.42% |
| COCC(=O)N1CCN(C(=O)NC(C)C)CC2(CC(=O)N(C)C2)C1 (stereo unspecified) | 9.18% |

| Compound | cytotoxicity at 70.5 h |
| --- | --- |
| Cc1noc([C@H]2CC[C@@H]3[C@@H](CCN3S(=O)(=O)C3CC3)O2)n1 | -3.57% |
| COCC1COCCC12CCN(C(=O)CC1Cc3ccccc3C1)CC2 (stereo unspecified) | 0.913% |
| COCC1CN(C(=O)Cc2cccs2)Cc2nnn(CC3CC3)c21 (stereo unspecified) | 2.3% |
| Cc1oncc1C(=O)N1CC[C@H]2[C@H]1CCN2Cc1ccccn1 | -3.13% |
| COCC1COCCC12CCN(C(=O)Cc1ccc(F)cc1)CC2 (stereo unspecified) | -16.1% |
| O=C(c1cccs1)N1CCN(CC2CC2)c2ncccc2C1 | -21% |
| Cc1noc([C@H]2COC[C@H]3CN(C(=O)Cc4ccsc4)C[C@H]32)n1 | -20.1% |
| Cc1noc([C@H]2COC[C@H]3CN(C(=O)Cc4cccs4)C[C@H]32)n1 | -12.6% |
| c1nc(N2CCOCC2)nc2c1COCC21CCN(CC2CC2)C1 (stereo unspecified) | -6.25% |
| CCn1nnc2c1C(COC)CN(C(=O)Cc1ccccn1)C2 (stereo unspecified) | -15.3% |
| O=C(C[C@@H]1COC[C@H]2CN(Cc3ccncc3)C[C@@H]12)N1CCCC1 | 11.8% |
| CCC(CC)C(=O)N1CCc2nc(N3CCCC3)nc(C)c2CC1 | -12.2% |
| Cc1nc(N2CCCC2)nc2c1CCN(C(=O)CC1CCCC1)CC2 | -9.31% |
| Cc1nc(N2CCOCC2)nc2c1CCN(C(=O)C1CC1)CC2 | -13.2% |
| Cn1cc(CN2CC[C@H]3OCC[C@@H](C(=O)NC4CCCC4)[C@@H]3C2)cn1 | -17.5% |
| Cc1nc(N2CCOCC2)nc2c1CCN(C(=O)C1CCCCC1)CC2 | 0.0722% |
| Cc1nc(CN2C(=O)CC[C@@H]3[C@H]2CCN3C(=O)C2CCCO2)cs1 (stereo partly specified) | -8.01% |
| Cc1nc(N2CCCC2)nc2c1CCN(C(=O)C(C)C)CC2 | -15.8% |
| Cc1nc(N2CCCC2)nc2c1CCN(C(=O)N(C)C)CC2 | -16.7% |
| CC(C)CN1C[C@H]2CCN(C(=O)NC3CCCC3)CC[C@H]2S1(=O)=O | -9.06% |
| COCCN1CC[C@H]2OCC[C@@H](C(=O)Nc3cccnc3)[C@@H]2C1 | 53% |
| CN1CC2(CCNCC2)COc2ccccc2S1(=O)=O | -2.93% |

| Compound | cytotoxicity at 70.5 h |
| --- | --- |
| Cn1cc(CN2CC[C@]3(C[C@H](OCc4ccccn4)CO3)C2)cn1 | -22.4% |
| CC(C)CNC(=O)[C@H]1C[C@@H]2CN(C(=O)Nc3ccc(F)cc3)C[C@H]1O2 | -26.4% |
| CNc1ncc2c(n1)CN(c1cccc(OC)c1)C2=O | -13.9% |
| CN1CCC2(CC1)C(=O)N(c1cccnc1)c1ccc(F)cc12 | -0.57% |
| COCCN1C[C@@H]2CN(c3cc(OC)ncn3)CCC[C@]2(C(=O)O)C1 | 9.96% |
| O=C(c1c[nH]cn1)N1CCC(F)(F)C2(CCN(c3cnccn3)C2)C1 (stereo unspecified) | 0.139% |
| O=C(NC1CC1)N1Cc2[nH]nc(COc3cccnc3)c2C1 | -6.87% |
| COCCCN1CCCC12CCN(c1ncccn1)CC2 | -5.24% |
| O=C(c1cnccn1)N1CCC(F)(F)C2(CCN(c3ccccn3)C2)C1 (stereo unspecified) | -8.49% |
| CN(C)C(=O)CN1C[C@H]2CCN(Cc3ccccc3)CC[C@H]2S1(=O)=O | -8.74% |
| CC1c2ncc(COCC3CC3)n2CCN1C (stereo unspecified) | -4.63% |
| Cc1cnc(N2CCc3c(cnc(C)c3C(=O)O)C2)nc1 | -2.57% |
| Cc1cnc(N2CCc3ncnc(N4CCN(C)CC4)c3CC2)nc1 | -2.07% |
| CCn1cc2c(n1)CN(S(=O)(=O)c1cn(C)cn1)CC2COC (stereo unspecified) | -3.24% |
| CC(C)N1CCn2c(COCC3CCOCC3)cnc2C1C (stereo unspecified) | -1.85% |
| O=S(=O)(C1CC1)N1CCc2ncnc(-c3ccncc3)c2CC1 | -0.987% |
| Cn1ccnc1CN1CCC2(CCCN2c2ncccn2)CC1 | -0.454% |
| CN(C)Cc1nn(C)c2c1CN(C(=O)c1ccc[nH]1)C2 | -0.767% |
| FC(F)(F)c1ccnc(N2C[C@H]3CCN(c4cccnc4)C[C@H]3C2)n1 | -17.5% |
| CCN1CC2(CC1=O)CN(Cc1ccsc1)CCN(C(=O)C(C)C)C2 (stereo unspecified) | -15.8% |
| CCOCC1CN(CC2CC2)Cc2nn(CC3CC3)cc21 (stereo unspecified) | 6.53% |
| CN(C)C(=O)C1OC2(CCNCC2)c2ccccc21 (stereo unspecified) | -6.23% |

| Compound | cytotoxicity at 70.5 h |
| --- | --- |
| O=C(NC[C@]12COC[C@H]1CN(Cc1nccs1)C2)c1ccsc1 | -3.53% |
| COC1COC2(CCN(Cc3ccc(Cl)cc3)CC2)C1 (stereo unspecified) | 6.16% |
| COCCN1CCC(c2nc3ccc(NC(C)C)cn3n2)CC1 | -17.4% |
| O=C(NCc1cccs1)[C@@H]1CC[C@@H]2[C@@H](CCN2c2ncccn2)O1 | -19.1% |
| COC1COC2(CCN(Cc3cccc(Cl)c3)CC2)C1 (stereo unspecified) | -9.84% |
| COC1COC2(CCN(Cc3cccc(C#N)c3)CC2)C1 (stereo unspecified) | -10.7% |
| O=C(NCc1cccs1)[C@@H]1CC[C@@H]2[C@@H](CCN2C2CCOCC2)O1 | -14.8% |
| CC1c2ncc(COc3cccnc3)n2CCN1C(=O)C1=CCCCC1 (stereo unspecified) | -14.2% |
| O=C(NCc1ccco1)[C@H]1CC[C@@H]2[C@@H](CCN2C2CCC2)O1 | -15.1% |
| COC1COC2(CCN(Cc3ccccc3C)CC2)C1 (stereo unspecified) | -13.2% |
| Cc1cccc(CN2CCC3(CC2)CN(c2cnn(C)c2)C(=O)CO3)n1 | 41.4% |
| O=C1CC[C@H]2[C@H](CCN2C(=O)C2CCOC2)N1Cc1ccncc1 (stereo partly specified) | -20.6% |
| CCC1=N[C@@]2(CC[C@@H]3CN(CC4CC4)C[C@@H]32)C(=O)N1CC | -14% |
| Cn1cc(N2CC3(CCN(Cc4ccoc4)CC3)OCC2=O)cn1 | -1.7% |
| COC[C@@H]1CCC[C@]12CN(Cc1ccco1)CCO2 | -1.04% |
| CC1=N[C@@]2(CC[C@@H]3CN(CC(=O)N(C)C)C[C@@H]32)C(=O)N1CC1CC1 | -2.19% |
| O=C1CC[C@H]2[C@H](CCN2C(=O)C2CCCO2)N1Cc1cccnc1 (stereo partly specified) | -6.99% |
| CN(C)CC(=O)N1CCc2sc(C(=O)NCC3CC3)cc21 | -12.2% |
| CCCNC(=O)c1cc2c(s1)CCN2C(=O)CN(C)C | -14.4% |
| COC[C@@H]1CCC[C@@]12CN(Cc1ccc(C)s1)CCO2 | 48.9% |
| Cc1ncnc2c1CCN(C(=O)Cc1ccccn1)CC2 | -12.9% |
| O[C@@H]1CCN(CC2CC2)[C@H]1Cc1ccccc1 | -23% |

| Compound | cytotoxicity at 70.5 h |
| --- | --- |
| CCc1ncnc2c1CCN(C(=O)c1ccccn1)CC2 | -24.1% |
| O=C(c1ccoc1)N1CCOCC2(CCN(C3CCOCC3)C2)C1 (stereo unspecified) | -2.14% |
| COCCN1CC[C@@H](OC)[C@@H]1Cc1ccccc1 | 15.6% |
| Cc1ccc2c(n1)N(Cc1csc(C)n1)CCN(C1CCOC1)C2 (stereo unspecified) | -5.88% |
| O=C(c1c[nH]cn1)N1CCC(F)(F)C2(CCN(c3ccccn3)C2)C1 (stereo unspecified) | -4.42% |
| FC1(F)CCNCC12CCN(c1cccnc1)C2 (stereo unspecified) | 13.7% |
| CC1c2ncc(COCC3CCOCC3)n2CCN1Cc1cccnc1 (stereo unspecified) | -4.06% |
| COCCN(C)C[C@@H]1CCC[C@@H]2CN(Cc3ccc(OC)nc3)C[C@@H]21 | 0.0071% |
| Cn1cc(CN2CCc3c(cnc(-c4ccccc4)c3C(=O)O)C2)cn1 | -5.39% |
| CCn1ncc2c1C(COCC1CC1)N(Cc1c(C)noc1C)CC2 (stereo unspecified) | 0.596% |
| Cc1noc(C)c1CN1CCO[C@H]2[C@H](Oc3ncccc3F)CC[C@@H]21 | -9.05% |
| c1cc(CN2CCC3(CC2)COC(COCC2CC2)C3)ccn1 (stereo unspecified) | -16.7% |
| CCc1ccc(CN2CCC3(CC2)CN(c2cnn(C)c2)C(=O)CO3)o1 | -8.17% |
| CO[C@H]1CCN(C2CCC2)[C@@H]2CN(Cc3ccncc3)C[C@H]12 | -0.868% |
| CN1CCn2c(-c3cccc(F)c3)cnc2C12CCN(CC1CC1)CC2 | 4.4% |
| Cn1cc(CN2C[C@H](Oc3ncccc3F)[C@H]3OCCC[C@H]32)cn1 | -10.3% |
| O=C(Nc1cccnc1)[C@@H]1CCO[C@@H]2CCN(Cc3cccnc3)C[C@@H]21 | -22.1% |
| CO[C@@H]1CCN(Cc2ccccn2)[C@@H]2CN(Cc3ccco3)C[C@@H]21 | 32.3% |
